From ChEMBL document CHEMBL1149672, “Synthesis of cryptolepine analogues as potential bioreducible anticancer agents” (Bioorg Med Chem, 2007)
pIC50: −log10 of the molar value. Where a name gives a salt, the structure may show the parent alone.

Experiments:
[1] = target: NAD(P)H dehydrogenase [quinone] 1 (Homo sapiens) (UniProt P15559); test: Activity of recombinant human NQO1 assessed as specific activity
RT-112 [2] = test: Cytotoxicity against NQO2 expressing human RT112 cells in presence of NRH cofactor by MTT assay; type: functional, cell-based
RT-112 [3] = test: Cytotoxicity against NQO2 expressing human RT112 cells by MTT assay; type: functional, cell-based
NCI-H460 = test: Cytotoxicity against high NQO1 protein expressing human H460 cells by MTT assay; type: functional, cell-based
BE [4] = test: Cytotoxicity against low NQO1 protein expressing human BE cells by MTT assay; type: functional, cell-based
BE [5] = test: Selectivity ratio of IC50 for human H460 cells IC50 for human BE cells; type: functional
RT-112 [6] = test: Selectivity ratio of IC50 for RT112 cells in presence of cofactor NRH to IC50 for RT112 cells; type: functional, Homo sapiens

NAD(P)H dehydrogenase [quinone] 1 (Homo sapiens), sequence (P15559 whole entry): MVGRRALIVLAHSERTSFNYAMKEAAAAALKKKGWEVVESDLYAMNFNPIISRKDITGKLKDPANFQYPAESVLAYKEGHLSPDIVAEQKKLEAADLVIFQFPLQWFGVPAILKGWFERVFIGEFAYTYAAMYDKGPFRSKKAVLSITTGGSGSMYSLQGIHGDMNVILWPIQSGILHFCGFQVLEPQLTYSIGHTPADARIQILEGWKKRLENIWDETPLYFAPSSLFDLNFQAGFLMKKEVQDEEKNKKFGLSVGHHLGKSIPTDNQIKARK

SMILES	Activity [1]	pIC50 (RT-112 [2])	pIC50 (RT-112 [3])	pIC50 (NCI-H460)	pIC50 (BE [4])	Ratio IC50 (BE [5])	Ratio IC50 (RT-112 [6])
C[n+]1c2ccc(F)cc2cc2[n-]c3c([N+](=O)[O-])cc([N+](=O)[O-])cc3c21	2.96 µmol/min/mg	6.72	6.35				
C[n+]1c2ccccc2cc2[n-]c3cc(Cl)c([N+](=O)[O-])cc3c21		5.97	5.99				
C[n+]1c2ccc(Cl)cc2cc2[n-]c3c([N+](=O)[O-])cc([N+](=O)[O-])cc3c21		6.64	6.54				
C[n+]1c2ccc(Cl)cc2cc2[nH]c3ccc([N+](=O)[O-])cc3c21	18.9 µmol/min/mg	6.55	6.39	6.34	6.02		
C[n+]1c2ccc(F)cc2cc2[n-]c3c([N+](=O)[O-])cccc3c21	2.72 µmol/min/mg	5.96	5.87				
C[n+]1c2ccc(Cl)cc2cc2[n-]c3c([N+](=O)[O-])cccc3c21		6.09	6.06				
C[n+]1c2ccccc2cc2[n-]c3c([N+](=O)[O-])cc(Br)cc3c21	8.66 µmol/min/mg	6.82	6.62	6.23	6.11		
C[n+]1c2ccccc2cc2[n-]c3cc([N+](=O)[O-])c(Br)cc3c21	13.9 µmol/min/mg	6.49	6.44	6.42	6.24		
Cn1c(/C=C/CO)c(CO)c2c1C(=O)C=C(N1CC1)C2=O [APAZIQUONE]	79.8 µmol/min/mg			8.23	6.22	100	
C[n+]1c2ccc(F)cc2cc2[n-]c3ccc([N+](=O)[O-])cc3c21		5.78	5.67				
C[n+]1c2ccccc2cc2[n-]c3c([N+](=O)[O-])c(Cl)ccc3c21	26.7 µmol/min/mg	6.19	6.12	5.73	5.83		
C[n+]1c2ccccc2cc2[n-]c3ccccc3c21 [CRYPTOLEPINE HYDROCHLORIDE]	4.53 µmol/min/mg	6.10	6.09	5.84	5.89		
NC(=O)c1cc(N2CC2)c([N+](=O)[O-])cc1[N+](=O)[O-] [TRETAZICAR]	3.56 µmol/min/mg	6.82	4.05				586
